Earlier results, collected in patent US10172842B2, “Sustained release oral dosage form containing dalfampridine” (PharmaDax Inc., priority 2015, dated 2019).

Key:
[1] = plasma concentrations lower than 13 ng/mL
[2] = in the absence of other risk factors

## Nc1ccncc1 [dalfampridine, 4-aminopyridine]
[1]
  changes in walking speed in MS patients: low percentage changes in walking speed
[2]
  plasma dalfampridine concentration considered a likely threshold for increased risk of seizure: approximately 100 ng/mL
